How the values were obtained:
TLR7 = molecular target: T1, TLR7 (Homo sapiens, UniProt Q9NYK1); assay: HEK TLR7 Cell Assay; assay type: cell-based; details: TLR7/NFKb HEK cells, R848 agonist 10 uM final, Steady-Glo readout
T1 construct: expressed in transfected cells; host or cells: HEK cells carrying TLR7 and an NFkB luciferase reporter
T1 sequence (Q9NYK1 27-1049): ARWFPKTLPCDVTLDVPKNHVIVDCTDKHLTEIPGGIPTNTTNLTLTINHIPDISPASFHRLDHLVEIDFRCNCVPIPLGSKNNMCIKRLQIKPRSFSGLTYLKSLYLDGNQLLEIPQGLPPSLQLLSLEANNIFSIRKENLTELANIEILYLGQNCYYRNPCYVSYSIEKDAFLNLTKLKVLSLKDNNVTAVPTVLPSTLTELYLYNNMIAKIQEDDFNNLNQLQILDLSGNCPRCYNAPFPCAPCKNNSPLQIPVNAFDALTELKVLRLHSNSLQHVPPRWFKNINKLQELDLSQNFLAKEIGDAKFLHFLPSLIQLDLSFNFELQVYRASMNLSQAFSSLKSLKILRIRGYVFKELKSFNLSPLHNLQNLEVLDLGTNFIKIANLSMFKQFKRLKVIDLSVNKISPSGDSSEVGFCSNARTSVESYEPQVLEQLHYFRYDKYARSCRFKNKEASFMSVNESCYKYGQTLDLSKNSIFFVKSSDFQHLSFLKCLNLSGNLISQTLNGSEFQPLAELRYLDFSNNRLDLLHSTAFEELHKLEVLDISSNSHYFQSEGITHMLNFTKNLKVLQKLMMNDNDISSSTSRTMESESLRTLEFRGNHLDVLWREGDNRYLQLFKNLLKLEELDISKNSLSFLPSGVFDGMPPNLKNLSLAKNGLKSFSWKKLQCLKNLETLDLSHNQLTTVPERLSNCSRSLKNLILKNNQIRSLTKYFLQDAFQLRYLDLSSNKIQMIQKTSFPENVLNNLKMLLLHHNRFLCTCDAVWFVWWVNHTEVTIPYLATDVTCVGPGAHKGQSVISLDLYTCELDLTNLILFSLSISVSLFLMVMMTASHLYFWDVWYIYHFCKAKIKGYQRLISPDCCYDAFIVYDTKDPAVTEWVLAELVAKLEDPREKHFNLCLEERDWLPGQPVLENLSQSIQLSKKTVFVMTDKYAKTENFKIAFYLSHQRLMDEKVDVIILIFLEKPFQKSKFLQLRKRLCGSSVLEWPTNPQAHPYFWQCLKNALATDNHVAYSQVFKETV
Method: Example 24: HEK TLR7 Cell Assay
(§1) Into 384 CulturePlates (Corning 3707) was placed 5000 c/w of TLR7/NFKb HEK cells in 30 uL DMEM without Phenol red (gibco #31053) and 10% FCS-HI, 2 mM L-Glutamine, 1% Pen/Strept. The cells are incubated for 24 h at 37 degrees Celsius, and 10% carbon dioxide. Dispense 3 uL of controls, standards, and compounds to wells, incubate for 30 min then add 3 uL of R848 (10 uM final concentration) agonist in 20 mM Hepes. Incubate for 5 hours and then allow to stand at room temperature for 15 min. Add 10 uL of Steady-Glo substrate reagent and shake assay plate for 5 min at 1500 rpm. Let the assay plate sit for 30 min at room temperature and then read plate on EnVision.

TLR8 = molecular target: T2, TLR8 (Homo sapiens, UniProt Q9NR97); assay: HEK TLR8 Cell Assay; assay type: cell-based; details: TLR8/NFKb HEK cells, R848 agonist 30 uM final, Steady-Glo readout
T2 construct: expressed in transfected cells; host or cells: HEK cells carrying TLR8 and an NFkB luciferase reporter
T2 sequence (Q9NR97 27-1041): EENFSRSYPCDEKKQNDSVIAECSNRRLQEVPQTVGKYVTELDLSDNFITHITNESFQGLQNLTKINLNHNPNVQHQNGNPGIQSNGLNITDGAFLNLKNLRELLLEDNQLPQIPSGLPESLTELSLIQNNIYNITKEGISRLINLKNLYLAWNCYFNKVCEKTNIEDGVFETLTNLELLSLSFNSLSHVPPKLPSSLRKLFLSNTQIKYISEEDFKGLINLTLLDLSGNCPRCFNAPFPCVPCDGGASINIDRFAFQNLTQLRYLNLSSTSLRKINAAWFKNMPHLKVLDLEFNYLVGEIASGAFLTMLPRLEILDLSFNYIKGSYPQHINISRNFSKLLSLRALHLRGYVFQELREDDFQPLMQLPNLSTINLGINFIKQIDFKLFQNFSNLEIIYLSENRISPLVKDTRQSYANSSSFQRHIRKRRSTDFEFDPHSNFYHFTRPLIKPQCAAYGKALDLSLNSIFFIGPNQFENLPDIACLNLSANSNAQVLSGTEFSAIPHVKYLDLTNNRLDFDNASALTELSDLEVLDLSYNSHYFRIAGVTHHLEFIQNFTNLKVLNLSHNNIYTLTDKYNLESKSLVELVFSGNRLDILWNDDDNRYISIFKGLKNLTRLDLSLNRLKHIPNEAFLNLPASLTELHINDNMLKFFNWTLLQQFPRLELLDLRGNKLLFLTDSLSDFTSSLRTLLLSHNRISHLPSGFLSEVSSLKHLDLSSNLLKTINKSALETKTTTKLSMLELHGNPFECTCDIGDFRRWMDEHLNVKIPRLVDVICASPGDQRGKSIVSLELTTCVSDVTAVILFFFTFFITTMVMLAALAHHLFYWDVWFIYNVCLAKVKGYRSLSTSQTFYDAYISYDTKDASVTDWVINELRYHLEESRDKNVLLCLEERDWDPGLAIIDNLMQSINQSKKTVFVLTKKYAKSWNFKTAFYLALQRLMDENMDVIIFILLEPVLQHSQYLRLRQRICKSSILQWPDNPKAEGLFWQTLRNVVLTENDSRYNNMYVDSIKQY
Method: Example 25: HEK TLR8 Cell Assay
as §1, with “TLR8/NFKb” for “TLR7/NFKb”, “(30” for “(10”

| Compound | IC50 (TLR7) [nM] | IC50 (TLR8) [nM] |
| --- | --- | --- |
| C[C@@H]1CN(c2ccc(C#N)c3nccnc23)C[C@@H]1NC(=O)C(O)C1CC1 (single isomer, unassigned) [Compound 14] | < 1000 | 1000 to 10000 |
| Cc1ccc(N2C[C@@H](C)[C@@H](NC(=O)C(O)C3CC3)C2)c2cccnc12 (single isomer, unassigned) [Compound 45] | > 10000 | > 10000 |
| Cc1ccc(N2C[C@@H](C)[C@@H](NC(=O)CN3CCOCC3)C2)c2cccnc12 [Compound 39, N-[(3R,4R)-4-methyl-1-(8-methylquinolin-5-yl)pyrrolidin-3-yl]-2-(morpholin-4-yl)acetamide] | 1000 to 10000 | > 10000 |
| Cc1ccc(N2C[C@@H](C)[C@@H](NC(=O)CC3(F)CCN(C)CC3)C2)c2cccnc12 [Compound 42, 2-(4-fluoro-1-methylpiperidin-4-yl)-N-[(3R,4R)-4-methyl-1-(8-methylquinolin-5-yl)pyrrolidin-3-yl]acetamide] | < 1000 | < 1000 |
| C[C@@H]1CN(c2ccc(C#N)c3nccnc23)C[C@@H]1NC(=O)CC1(F)CCNCC1 [Compound 9, N-[(3R,4R)-1-(8-cyanoquinoxalin-5-yl)-4-methylpyrrolidin-3-yl]-2-(4-fluoropiperidin-4-yl)acetamide] | < 1000 | < 1000 |
| Cc1ccc(N2C[C@@H](C)[C@@H](NC(=O)CC3CCN(C)CC3)C2)c2cccnc12 [Compound 34, N-[(3R,4R)-4-methyl-1-(8-methylquinolin-5-yl)pyrrolidin-3-yl]-2-(1-methylpiperidin-4-yl)acetamide] | < 1000 | < 1000 |
| C[C@@H]1CN(c2ccc(C#N)c3nccnc23)C[C@@H]1N [Compound 1, 8-[(3R,4R)-3-amino-4-methylpyrrolidin-1-yl]quinoxaline-5-carbonitrile] | < 1000 | 1000 to 10000 |
| CC(C)[C@@H](O)C(=O)N[C@H]1CN(c2ccc(C(F)(F)F)c3ncccc23)C[C@H]1C [Compound 32, (2R)-2-hydroxy-3-methyl-N-[(3R,4R)-4-methyl-1-[8-(trifluoromethyl)quinolin-5-yl]pyrrolidin-3-yl]butanamide] | > 10000 | > 10000 |
| C[C@@H]1CN(c2ccc(C(F)(F)F)c3ncccc23)C[C@@H]1NC(=O)CC1CCN(C)C1 (single isomer, unassigned) [Compound 21] | < 1000 | < 1000 |
| Cc1ccc(N2C[C@@H](C)[C@@H](NC(=O)CC3(F)CCNCC3)C2)c2cccnc12 [Compound 41, 2-(4-fluoropiperidin-4-yl)-N-[(3R,4R)-4-methyl-1-(8-methylquinolin-5-yl)pyrrolidin-3-yl]acetamide] | < 1000 | 1000 to 10000 |
| C[C@@H]1CN(c2ccc(C#N)c3nccnc23)C[C@@H]1NC(=O)CC1CCN(C)C1 (single isomer, unassigned) [Compound 6] | < 1000 | < 1000 |
| Cc1ccc(N2C[C@@H](C)[C@@H](NC(=O)CC3CCCN(C)C3)C2)c2cccnc12 (single isomer, unassigned) [Compound 35] | 1000 to 10000 | 1000 to 10000 |
| C[C@@H]1CN(c2ccc(C(F)(F)F)c3ncccc23)C[C@@H]1NC(=O)CN1CCOCC1 [Compound 23, N-[(3R,4R)-4-methyl-1-[8-(trifluoromethyl)quinolin-5-yl]pyrrolidin-3-yl]-2-(morpholin-4-yl)acetamide] | 1000 to 10000 | > 10000 |
| Cc1ncc(N2C[C@@H](C)[C@@H](NC(=O)CC3CCN(C)CC3)C2)c2cccnc12 [Compound 52, N-[(3R,4R)-4-methyl-1-(8-methyl-[1,7]naphthyridin-5-yl)-pyrrolidin-3-yl]-2-(1-methyl-piperidin-4-yl)-acetamide] | < 1000 | > 10000 |
| C[C@@H]1CN(c2ccc(C#N)c3nccnc23)C[C@@H]1NC(=O)CC1(F)CCN(C)CC1 [Compound 10, N-[(3R,4R)-1-(8-cyanoquinoxalin-5-yl)-4-methylpyrrolidin-3-yl]-2-(4-fluoro-1-methylpiperidin-4-yl)acetamide] | < 1000 | < 1000 |
| C[C@@H]1CN(c2ccc(C(F)(F)F)c3ncccc23)C[C@@H]1NC(=O)CC1CCN(C)CC1(F)F (single isomer, unassigned) [Compound 27] | 1000 to 10000 | 1000 to 10000 |
| Cc1ccc(N2C[C@@H](C)[C@@H](NC(=O)[C@@H](O)C(C)C)C2)c2cccnc12 [Compound 47, (2S)-2-hydroxy-3-methyl-N-[(3R,4R)-4-methyl-1-(8-methylquinolin-5-yl)pyrrolidin-3-yl]butanamide] | 1000 to 10000 | > 10000 |
| C[C@@H]1CN(c2ccc(C(F)(F)F)c3ncccc23)C[C@@H]1NC(=O)CC1(F)CCN(C)CC1 [Compound 26, 2-(4-fluoro-1-methylpiperidin-4-yl)-N-[(3R,4R)-4-methyl-1-[8-(trifluoromethyl)quinolin-5-yl]pyrrolidin-3-yl]acetamide] | < 1000 | < 1000 |
| NC1CN(c2ccc(C(F)(F)F)c3ncccc23)CC1F (single isomer, unassigned) [Compound 49] | > 10000 | > 10000 |
| C[C@@H]1CN(c2ccc(C#N)c3nccnc23)C[C@@H]1NC(=O)CC1(C)CCN(C)CC1 [Compound 8, N-[(3R,4R)-1-(8-cyanoquinoxalin-5-yl)-4-methylpyrrolidin-3-yl]-2-(1,4-dimethylpiperidin-4-yl)acetamide] | < 1000 | < 1000 |
| Cc1ccc(N2C[C@@H](C)[C@@H](NC(=O)CC3CCN(C)C3)C2)c2cccnc12 (single isomer, unassigned) [Compound 37] | < 1000 | 1000 to 10000 |
| C[C@@H]1CN(c2ccc(C#N)c3nccnc23)C[C@@H]1NC(=O)CC1CCCN(C)C1 (single isomer, unassigned) [Compound 3] | < 1000 | < 1000 |

— US10793553B2, “TLR7/8 antagonists and uses thereof” (Merck Patent GmbH, priority 2017, dated 2020)
